Literature values, collected in US8414913B2, “Edible compositions for lowering cholesterol” (Raisio Benecol Oy, priority 2001, dated 2013).

Tested on: total and low density lipoprotein (LDL) cholesterol level
Details: diets with high β-glucan content; Ripsin et al. 1992, Braaten et al. 1994

β-glucan
lowering of total and LDL cholesterol level: 8-12%
